# Laboratory results from US10322112B2, “Compound combinations for attenuation of bacterial virulence” (priority 2016, dated 2019).
# Key:
# [1] = system: P. aeruginosa (PAO1); experiment: Rhamnolipid assay; assay type: cell-based, Pseudomonas aeruginosa; conditions: MOPS Glutamate and Glucose media, complete or iron/phosphate depleted, 17 h, 100 μM (compounds 1, 2, 3), 25 μM (compound 4), relative to DMSO
# Description: (§1) A. Pyocyanin Assay Protocol. The amount of pyocyanin in P. aeruginosa culture supernatants was measured following a reported protocol (O'Loughlin et al., 2013) with modifications. A 10 mL overnight culture of P. aeruginosa PAO1 was grown for 16 h. DMSO stock solutions of test compounds (20 mM) were prepared, and 10 μL or 5 μL aliquots were added to sterile 15 mL borosilicate glass test tubes. An inoculating culture was prepared by diluting the overnight culture 1:100 into freshly prepared assay medium (see above), and 2 mL aliquots of this subculture were added to each test tube (0.5% DMSO, final). The cultures were grown for 17 h, and the final cell density measured by reading OD600. Relative pyocyanin levels were measured by first pelleting 1.5 mL of well-mixed culture at 4,000 g for 10 min, transferring 200 μL of the resulting supernatant to a clear, plastic 96-well microtiter plate, and reading absorbance at 695 nm. Media background absorbance (measured from a “no bacteria” control) was subtracted, the resulting values growth normalized by dividing by the final OD600378, and the data plotted relative to a DMSO-treated positive control. B. Rhamnolipid Assay Protocol. Rhamnolipid was quantified following a reported protocol (Koch et al., 1991) with modifications. Assay cultures were prepared and grown in an identical manner to the pyocyanin assay above. Aliquots of the final culture supernatant (1 mL) were transferred to 1 dram glass vials and extracted twice with 1 mL diethyl ether. The pooled organic fractions were evaporated to dryness, and the resulting residue reconstituted in 200 μL de-ionized water. […] After briefly cooling to room temperature, 200 μL of the resulting yellow to yellow-orange solution was transferred to a clear 96-well microtiter plate, and the absorbance at 421 nm measured. Media background absorbance (measured from a “no bacteria” control) was subtracted, the resulting values growth normalized by dividing by the final OD600, and the data plotted relative to a DMSO-treated positive control. […] The amount of elastase B in P. aeruginosa culture supernatants was measured following a reported protocol (Geske et al., 2007) with modifications. […] To quantify elastase B activity, the undigested elastin was pelleted by centrifugation of the assay plate at 1,500 g for 10 min, after which 100 μL of the supernatant was transferred to a new, clear 96-well plate, and the absorbance at 490 nm measured. Media background absorbance (measured from a “no bacteria” control) was subtracted, the resulting values growth normalized by dividing by the final OD600, and the data plotted relative to a DMSO-treated positive control.
# [2] = molecular target: QscR (Pseudomonas aeruginosa, UniProt G3XD77); conditions: compounds at 100 mm; E. coli reporter strain JLD271/pJN105Q/pSC11-Q; 100 mm OdDHL = 100%; error ±10%
# Source text: Construction of pSC11-Q: A 348 bp fragment spanning the upstream region of PA1897 (¢304 to +43 relative to the PA1897 translationalstart codon) was amplified from plasmid pJL101*by using primers 5′-GAATAT GGATCC TCTCTC CGCAGA TACCTG-3′ (BamHI site underlined) SEQ ID NO:5 and 5′-GCTATT GAATTC TGAAGA TGAATA GCGCCAC-3′ (EcoRI site underlined) SEQ ID NO:6. The PCR-generated fragment was digested with EcoRI and BamHI and subsequently ligated into EcoRI/BamHI-digested pPROBE-KT to generate pPROBE-KQ2. […] CGCC-3′ (BamHI site underlined) SEQ ID NO:8. The PCR-generated fragment was digested with SalI and BamHI and subsequently ligated into SalI/BamHI-digested pSC11 to generate pSC11-Q.
# E. coli reporter gene assays: Primary assays for RhlR, LasR, and QscR activity in E. coli JLD271 reporter (beta-galactosidase) strains were performed as reported by Welsh et al. 2015, with the following modifications:
# For all primary and dose-response antagonism assays, the concentration of native ligand utilized was approximately equal to its EC50 value in each bacterial reporter strain. For RhlR, LasR, and QscR primary antagonism assays, synthetic ligand (100 mm) was screened against BHL (10 mm), OdDHL (2 nm), and OdDHL (15 nm), respectively. For RhlR, LasR, and QscR primary agonism assays, synthetic compound (100 mm) was screened alongside and compared to the natural ligand (900 mm BHL or 100 mm OdDHL) for the receptor. As part of the beta-galactosidase assay protocol, plates to which CPRG substrate had been added were incubated at either 25° C. (LasR assay) or 30° C. (RhlR and QscR assays) until positive control wells developed a deep red color (10 min for LasR, 30 min for RhlR, and 60 min for QscR). Dose-response reporter gene assays were performed according to these protocols by using varying concentrations of compound.
# [3] = system: P. aeruginosa (PAO1); experiment: Elastase B assay; assay type: cell-based, Pseudomonas aeruginosa; conditions: MOPS Glutamate and Glucose media, complete or iron/phosphate depleted, 17 h, 100 μM (compounds 1, 2, 3), relative to DMSO
# Description: as §1
# [4] = system: P. aeruginosa (PAO1); experiment: Pyocyanin assay; assay type: cell-based, Pseudomonas aeruginosa; conditions: MOPS Glutamate and Glucose media, complete or iron/phosphate depleted, 17 h, 100 μM (compounds 1, 2, 3), 25 μM (compound 4), relative to DMSO
# Description: A. Pyocyanin Assay Protocol. The amount of pyocyanin in P. aeruginosa culture supernatants was measured following a reported protocol (O'Loughlin et al., 2013) with modifications. A 10 mL overnight culture of P. aeruginosa PAO1 was grown for 16 h. DMSO stock solutions of test compounds (20 mM) were prepared, and 10 μL or 5 μL aliquots were added to sterile 15 mL borosilicate glass test tubes. An inoculating culture was prepared by diluting the overnight culture 1:100 into freshly prepared assay medium (see above), and 2 mL aliquots of this subculture were added to each test tube (0.5% DMSO, final). The cultures were grown for 17 h, and the final cell density measured by reading OD600. Relative pyocyanin levels were measured by first pelleting 1.5 mL of well-mixed culture at 4,000 g for 10 min, transferring 200 μL of the resulting supernatant to a clear, plastic 96-well microtiter plate, and reading absorbance at 695 nm. Media background absorbance (measured from a “no bacteria” control) was subtracted, the resulting values growth normalized by dividing by the final OD600378, and the data plotted relative to a DMSO-treated positive control. B. Rhamnolipid Assay Protocol. Rhamnolipid was quantified following a reported protocol (Koch et al., 1991) with modifications. Assay cultures were prepared and grown in an identical manner to the pyocyanin assay above. Aliquots of the final culture supernatant (1 mL) were transferred to 1 dram glass vials and extracted twice with 1 mL diethyl ether. The pooled organic fractions were evaporated to dryness, and the resulting residue reconstituted in 200 μL de-ionized water. In a 1.7 mL plastic centrifuge tube, 50 μL of this extract was diluted into 450 μL of a solution of 0.19% (w/v) orcinol in 50% (v/v) concentrated H2SO4 (or 20 μL extract into 480 μL orcinol solution for cultures grown in MOPS Glucose medium). The tubes were vortexed thoroughly to mix and incubated in an 80° C. heating block for 30 min. After briefly cooling to room temperature, 200 μL of the resulting yellow to yellow-orange solution was transferred to a clear 96-well microtiter plate, and the absorbance at 421 nm measured. Media background absorbance (measured from a “no bacteria” control) was subtracted, the resulting values growth normalized by dividing by the final OD600, and the data plotted relative to a DMSO-treated positive control. C. Elastase B Assay Protocol. The amount of elastase B in P. aeruginosa culture supernatants was measured following a reported protocol (Geske et al., 2007) with modifications. Assay cultures were prepared and grown in an identical manner to the pyocyanin assay above. Aliquots of the final culture supernatant (50 μL) were added to the wells of a clear, plastic 96-well plate. To each well, 150 μL of 0.5% (w/v) elastin-congo red conjugate (Elastin Products Co.) in Tris buffer (10 mM Tris-HCl, 1 mM CaCl2, pH 7.2) was added. The plate was sealed with a polypropylene storage mat (Costar 3080) and incubated in a 37° C. shaking incubator (200 rpm) attached to a Labquake rotator for 12 h (for experiments in SCFM2) or 24 h (for experiments in MOPS medium). To quantify elastase B activity, the undigested elastin was pelleted by centrifugation of the assay plate at 1,500 g for 10 min, after which 100 μL of the supernatant was transferred to a new, clear 96-well plate, and the absorbance at 490 nm measured. Media background absorbance (measured from a “no bacteria” control) was subtracted, the resulting values growth normalized by dividing by the final OD600, and the data plotted relative to a DMSO-treated positive control.
# Chain of QscR (G3XD77 entry or part of it): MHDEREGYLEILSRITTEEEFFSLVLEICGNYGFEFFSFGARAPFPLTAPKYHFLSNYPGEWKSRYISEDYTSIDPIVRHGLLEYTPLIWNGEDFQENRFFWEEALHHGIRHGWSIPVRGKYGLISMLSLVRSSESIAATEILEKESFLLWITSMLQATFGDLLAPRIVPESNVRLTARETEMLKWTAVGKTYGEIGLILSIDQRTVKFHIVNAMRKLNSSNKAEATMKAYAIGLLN
structure (smiles),measurement,setting,value
O=C(N[C@H]1CCOC1=O)C1CCCC1 [compound 3],"rhamnolipid production, single compound screens",[1],induced additional rhamnolipid and elastase B production
same,Activation [%] QscR,[2],4%
same,"elastase B production, single compound screens",[3],induced additional rhamnolipid and elastase B production
same,"pyocyanin production, single compound screens",[4],blocked pyocyanin production under nearly all of the environmental conditions tested
